In patent US9156872B2, “2′-azido substituted nucleoside derivatives and methods of use thereof for the treatment of viral diseases” (priority 2011, dated 2015) one finds EC50 data, which are given here for 42 compounds.

This experiment relates to HCV replicon cells. In words: Cell-based HCV replicon assay (replicon RNA by Taqman real time PCR). The settings on record: read-out: 1b EC50. For orientation: Replicon systems follow genome replication, usually without infectious particles.
The mark [1] stands for this setting: Hepatitis C virus, 72 h, HCV replicon 1b, cells harvested on day 3.
[2] abbreviates: HCV replicon 1b, cells harvested on day 3.

Like-named read-outs stand apart in the source and are kept apart here. Some results are limits rather than exact numbers.

On to `COC(=O)[C@H](C)NP(=O)(OC[C@H]1O[C@@H](n2ccc(=O)[nH]c2=O)[C@](C)(N=[N+]=[N-])[C@@H]1O)Oc1ccc(Cl)cc1` (single isomer, unassigned) [Compound 326], for which the EC50 turned out to be 0.5 µM.

Take `COC(=O)[C@H](C)NP(=O)(OC[C@H]1O[C@@H](n2ccc(=O)[nH]c2=O)[C@](C)(N=[N+]=[N-])[C@@H]1O)Oc1ccc(Cl)cc1` (single isomer, unassigned) [Compound 327]: the EC50 was 1.7 µM.

In the case of `C[C@H](NP(=O)(O)OC[C@H]1O[C@@H](n2ccc(=O)[nH]c2=O)[C@](C)(N=[N+]=[N-])[C@@H]1O)C(=O)OC1CCCCC1` (single isomer, unassigned) [Compound 329], the EC50 under setting [1] was greater than 100 µM.

As to `COC(=O)[C@H](C)NP(=O)(OC[C@H]1O[C@@H](n2ccc(N)nc2=O)[C@](C)(N=[N+]=[N-])[C@@H]1O)Oc1ccccc1Cl` (single isomer, unassigned) [Compound 330], the EC50 (Hepatitis C virus, 72 h) came out at 12 µM.

Regarding `COC(=O)[C@H](C)NP(=O)(OC[C@H]1O[C@@H](n2ccc(N)nc2=O)[C@](C)(N=[N+]=[N-])[C@@H]1O)Oc1ccccc1Cl` (single isomer, unassigned) [Compound 331], the EC50 stood at 10 µM.

`CC(C)OC(=O)[C@H](C)NP(=O)(OC[C@H]1O[C@@H](n2ccc(N)nc2=O)[C@](C)(N=[N+]=[N-])[C@@H]1O)Oc1ccccc1Cl` (single isomer, unassigned) [Compound 332]: the concentration giving a half-maximal response (EC50) was determined as 20 µM.

On to `CC(C)OC(=O)[C@H](C)NP(=O)(OC[C@H]1O[C@@H](n2ccc(N)nc2=O)[C@](C)(N=[N+]=[N-])[C@@H]1O)Oc1ccccc1Cl` (single isomer, unassigned) [Compound 333], for which the concentration for a half-maximal effect (EC50) worked out at 1.3 µM.

Consider `CC(C)OC(=O)[C@H](C)NP(=O)(OC[C@H]1O[C@@H](n2ccc(N)nc2=O)[C@](C)(N=[N+]=[N-])[C@@H]1O)Oc1ccc2c(c1)OCO2` (single isomer, unassigned) [Compound 334], for which the EC50 is 13 µM.

Take `CC(C)OC(=O)[C@H](C)NP(=O)(OC[C@H]1O[C@@H](n2ccc(N)nc2=O)[C@](C)(N=[N+]=[N-])[C@@H]1O)Oc1ccc2c(c1)OCO2` (single isomer, unassigned) [Compound 335]: the concentration for a half-maximal effect (EC50) was greater than 100 µM.

Regarding `C[C@H](NP(=O)(OC[C@H]1O[C@@H](n2ccc(N)nc2=O)[C@](C)(N=[N+]=[N-])[C@@H]1O)Oc1ccccc1)C(=O)OC1CCCCC1` (single isomer, unassigned) [Compound 337], the EC50 (Hepatitis C virus, 72 h) was 27 µM.

With `C[C@H](NP(=O)(OC[C@H]1O[C@@H](n2ccc(N)nc2=O)[C@](C)(N=[N+]=[N-])[C@@H]1O)Oc1ccccc1)C(=O)OC1CCCCC1` (single isomer, unassigned) [Compound 338], the EC50 is 26 µM.

With `C[C@H](NP(=O)(OC[C@H]1O[C@@H](n2ccc(N)nc2=O)[C@](C)(N=[N+]=[N-])[C@@H]1O)Oc1ccc(Cl)cc1)C(=O)OC1CCCCC1` (single isomer, unassigned) [Compound 339], the EC50 (Hepatitis C virus, 72 h) was 14 µM.

On to `C[C@H](NP(=O)(OC[C@H]1O[C@@H](n2ccc(N)nc2=O)[C@](C)(N=[N+]=[N-])[C@@H]1O)Oc1ccc(Cl)cc1)C(=O)OC1CCCCC1` (single isomer, unassigned) [Compound 340], for which the concentration giving a half-maximal response (EC50) was 20 µM.

On to `COC(=O)[C@H](C)NP(=O)(OC[C@H]1O[C@@H](n2ccc(N)nc2=O)[C@](C)(N=[N+]=[N-])[C@@H]1O)Oc1ccc(Cl)c(Cl)c1` (single isomer, unassigned) [Compound 343], for which the half-maximal effective concentration (EC50) (Hepatitis C virus, 72 h) was determined as 61 µM.

Regarding `COC(=O)[C@H](C)NP(=O)(OC[C@H]1O[C@@H](n2ccc(N)nc2=O)[C@](C)(N=[N+]=[N-])[C@@H]1O)Oc1ccc(Cl)c(Cl)c1` (single isomer, unassigned) [Compound 344], the EC50 was 35 µM.

As for `COC(=O)[C@H](C)NP(=O)(OC)OC[C@H]1O[C@@H](n2ccc(N)nc2=O)[C@](C)(N=[N+]=[N-])[C@@H]1O` (single isomer, unassigned) [Compound 345], the concentration giving a half-maximal response (EC50) (Hepatitis C virus, 72 h) is greater than 100 µM.

With `COC(=O)[C@H](C)NP(=O)(OC)OC[C@H]1O[C@@H](n2ccc(N)nc2=O)[C@](C)(N=[N+]=[N-])[C@@H]1O` (single isomer, unassigned) [Compound 346], the concentration for a half-maximal effect (EC50) is greater than 100 µM.

Regarding `CCOc1nc(N)nc2c1ncn2[C@@H]1O[C@H](COP(=O)(N[C@@H](C)C(=O)OCc2ccccc2)Oc2ccccc2)[C@@H](O)[C@@]1(C)N=[N+]=[N-]` (single isomer, unassigned) [Compound 350], the 50% effective concentration (EC50) turned out to be 1 µM.

With `CCOc1nc(N)nc2c1ncn2[C@@H]1O[C@H](COP(=O)(N[C@@H](C)C(=O)OCc2ccccc2)Oc2ccccc2)[C@@H](O)[C@@]1(C)N=[N+]=[N-]` (single isomer, unassigned) [Compound 351], the EC50 stood at 2.6 µM.

On to `CCOC(=O)[C@H](C)NP(=O)(OC[C@H]1O[C@@H](n2cnc3c(OCC)nc(N)nc32)[C@](C)(N=[N+]=[N-])[C@@H]1O)Oc1ccc(Cl)cc1` (single isomer, unassigned) [Compound 352], for which, for the setting “Hepatitis C virus, 72 h”, the EC50 came to 1.1 µM.

As for `CCOC(=O)[C@H](C)NP(=O)(OC[C@H]1O[C@@H](n2cnc3c(OCC)nc(N)nc32)[C@](C)(N=[N+]=[N-])[C@@H]1O)Oc1ccc(Cl)cc1` (single isomer, unassigned) [Compound 353], the half-maximal effective concentration (EC50) amounted to 0.9 µM.

Consider `CCOc1nc(N)nc2c1ncn2[C@@H]1O[C@H](COP(=O)(N[C@@H](C)C(=O)OC)Oc2cccc3ccccc23)[C@@H](O)[C@@]1(C)N=[N+]=[N-]` (single isomer, unassigned) [Compound 355], for which, under “Hepatitis C virus, 72 h”, the EC50 was determined as 1.3 µM.

Consider `CCOC(=O)[C@H](C)NP(=O)(OC[C@H]1O[C@@H](n2cnc3c(OCC)nc(N)nc32)[C@](C)(N=[N+]=[N-])[C@@H]1O)Oc1ccccc1Cl` (single isomer, unassigned) [Compound 358], for which the EC50 (Hepatitis C virus, 72 h) turned out to be 2.3 µM.

Take `CCOC(=O)[C@H](C)NP(=O)(OC[C@H]1O[C@@H](n2cnc3c(OCC)nc(N)nc32)[C@](C)(N=[N+]=[N-])[C@@H]1O)Oc1ccccc1Cl` (single isomer, unassigned) [Compound 359]: the concentration for a half-maximal effect (EC50) stood at 3.3 µM.

Turning to `CCOc1nc(N)nc2c1ncn2[C@@H]1O[C@H](COP(=O)(N[C@@H](C)C(=O)OC(C)C)Oc2ccc(Cl)c(Cl)c2)[C@@H](O)[C@@]1(C)N=[N+]=[N-]` (single isomer, unassigned) [Compound 360], the EC50 came out at 4.8 µM.

For `CCOc1nc(N)nc2c1ncn2[C@@H]1O[C@H](COP(=O)(N[C@@H](C)C(=O)OC(C)C)Oc2ccc(Cl)c(Cl)c2)[C@@H](O)[C@@]1(C)N=[N+]=[N-]` (single isomer, unassigned) [Compound 361], the EC50 came to 11.2 µM.

`CCOc1nc(N)nc2c1ncn2[C@@H]1O[C@H](COP(=O)(N[C@@H](C)C(=O)OC2CCC2)Oc2ccccc2)[C@@H](O)[C@@]1(C)N=[N+]=[N-]` (single isomer, unassigned) [Compound 362]: the EC50 is 2.6 µM.

`CCOc1nc(N)nc2c1ncn2[C@@H]1O[C@H](COP(=O)(N[C@@H](C)C(=O)OC2CCC2)Oc2ccccc2)[C@@H](O)[C@@]1(C)N=[N+]=[N-]` (single isomer, unassigned) [Compound 363]: the EC50 amounted to 0.2 µM.

For the compound `CCOc1nc(N)nc2c1ncn2[C@@H]1O[C@H](COP(=O)(N[C@@H](C)C(=O)OC(C)C)Oc2ccc(F)cc2)[C@@H](O)[C@@]1(C)N=[N+]=[N-]` (single isomer, unassigned) [Compound 364], the 50% effective concentration (EC50) was found to be 6.4 µM.

In the case of `CCOc1nc(N)nc2c1ncn2[C@@H]1O[C@H](COP(=O)(N[C@@H](C)C(=O)OC(C)C)Oc2ccc(F)cc2)[C@@H](O)[C@@]1(C)N=[N+]=[N-]` (single isomer, unassigned) [Compound 365], the EC50 was determined as 1.1 µM.

Consider `CCCOC(=O)[C@H](C)N[P@@](=O)(OC[C@H]1O[C@@H](n2ccc(=O)[nH]c2=O)[C@](C)(N=[N+]=[N-])[C@@H]1O)Oc1cccc2ccccc12` (single isomer, unassigned) [Compound 375], for which the EC50 (Hepatitis C virus, 72 h) came out at 0.8 µM.

Consider `CCCOC(=O)[C@H](C)N[P@](=O)(OC[C@H]1O[C@@H](n2ccc(=O)[nH]c2=O)[C@](C)(N=[N+]=[N-])[C@@H]1O)Oc1cccc2ccccc12` (single isomer, unassigned) [Compound 376], for which, where the note is “Hepatitis C virus, 72 h”, the EC50 was determined as 2.2 µM.

`COC(=O)[C@H](C)NP1(=O)OC[C@H]2O[C@@H](n3ccc(N)nc3=O)[C@](C)(N=[N+]=[N-])[C@@H]2O1` (single isomer, unassigned) [Compound 529]: the EC50 under setting [1] stood at 59 µM.

As to `COC(=O)[C@H](C)NP1(=O)OC[C@H]2O[C@@H](n3ccc(N)nc3=O)[C@](C)(N=[N+]=[N-])[C@@H]2O1` (single isomer, unassigned) [Compound 530], the EC50 under setting [2] turned out to be 67 µM.

As to `C[C@@]1(N=[N+]=[N-])[C@@H]2OP(=O)(OC3CCCC3)OC[C@H]2O[C@H]1n1ccc(=O)[nH]c1=O` (single isomer, unassigned) [Compound 561], under setting [2], the concentration for a half-maximal effect (EC50) was found to be 3.1 µM.

For `C[C@@]1(N=[N+]=[N-])[C@@H]2OP(=O)(OC3CCCC3)OC[C@H]2O[C@H]1n1ccc(=O)[nH]c1=O` (single isomer, unassigned) [Compound 562], the concentration giving a half-maximal response (EC50) under setting [2] stood at 0.4 µM.

Consider `CC(C)OP1(=O)OC[C@H]2O[C@@H](n3ccc(=O)[nH]c3=O)[C@](C)(N=[N+]=[N-])[C@@H]2O1` (single isomer, unassigned) [Compound 563], for which, under setting [2], the concentration giving a half-maximal response (EC50) is greater than 100 µM.

With `CC(C)OP1(=O)OC[C@H]2O[C@@H](n3ccc(=O)[nH]c3=O)[C@](C)(N=[N+]=[N-])[C@@H]2O1` (single isomer, unassigned) [Compound 564], the 50% effective concentration (EC50) under setting [2] was greater than 100 µM.

With `CCCOP1(=O)OC[C@H]2O[C@@H](n3ccc(=O)[nH]c3=O)[C@](C)(N=[N+]=[N-])[C@@H]2O1` (single isomer, unassigned) [Compound 565], the 50% effective concentration (EC50) under setting [2] was greater than 100 µM.

Turning to `CCCOP1(=O)OC[C@H]2O[C@@H](n3ccc(=O)[nH]c3=O)[C@](C)(N=[N+]=[N-])[C@@H]2O1` (single isomer, unassigned) [Compound 566], the concentration for a half-maximal effect (EC50) under setting [2] was greater than 100 µM.

For the compound `C[C@@]1(N=[N+]=[N-])[C@H](O)[C@@H](CO)O[C@H]1n1ccc(N)nc1=O` [Compound 1], under setting [1], the EC50 is 26 µM.

With `CC(=O)Nc1ccn([C@@H]2O[C@H](CO)[C@@H](O)[C@@]2(C)N=[N+]=[N-])c(=O)n1` [Compound 2], under setting [1], the EC50 worked out at 75 µM.

In general, EC50 refers to the concentration at which the effect is half-maximal.
